Test results from article PMC6440977, “Nucleoside analogue activators of cyclic AMP-independent protein kinase A of Trypanosoma” (Nature Communications, 2019).
“And” between values parts separate entries of the source, which are not always exact repeats. Equal values may be shown once.

Tests used:
T. brucei PKA = T. brucei PKA (Trypanosoma brucei brucei, UniProt Q9GU80); assay: In vivo PKA reporter assay (VASP Ser-157 phosphorylation, western blot); type: cell-based;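 further: T. brucei cells expressing human VASP as heterologous PKA substrate, compound exposure at 37 °C, western blot of phospho (50 kDa) versus unphosphorylated (46 kDa) VASP band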
[1] = molecular target: T. brucei PKAR-PKAC1 holoenzyme (Trypanosoma brucei, UniProt Q9GU80); assay: biochemical; type: biochemical; conditions: for In vitro kinase assay: technical replicates
T. brucei proteome = assay: Label-free quantitative proteomics; type: cell-based, Trypanosoma brucei
Method: Trypanosomes treated or not with 2 µM 7-CN-7-C-Ino (time course: 0 h, 6 h, 12 h) were washed twice in phosphate buffered saline (PBS) and lysed in Laemmli sample buffer to a concentration of 2.5×10^5 cells µl -1. Protein concentration was determined by Colloidal Coomassie Blue staining and densitometry. 20 µg of protein were loaded on a 10% acrylamide SDS-PAGE gel. Migration was stopped when samples had entered the resolving gel and proteins were visualized by Colloidal Coomassie Blue staining. Each SDS-PAGE band was cut into 1 mm × 1 mm gel pieces and further processed as described previously 26.
Online nanoLC-MS/MS analyses were performed using an Ultimate 3000 RSLC Nano-UPHLC system (Thermo Scientific, USA) coupled to a nanospray Q-Exactive hybrid quadrupole-Orbitrap mass spectrometer (Thermo Scientific, USA). 1 µg of each peptide extract was loaded on a 300 µm ID x 5 mm PepMap C18 precolumn (Thermo Scientific, USA) at a flow rate of 20 µl min -1. After a 3 min desalting step, peptides were separated on a 75 µm ID x 25 cm C 18 Acclaim PepMap® RSLC column (Thermo Scientific, USA) with a 4-40% linear gradient of solvent B (0.1% formic acid in 80% ACN) in 108 min. The separation flow rate was set at 300 nl min-1. The mass spectrometer operated in positive ion mode at a 1.8 kV needle voltage. Data was acquired using Xcalibur 3.1 software in a data-dependent mod e. MS scans (m/z 300-1,600) were recorded at a resolution of R = 70,000 (@ m/z 200) and an AGC target of 3×10 6 ions collected within 100 ms. Dynamic exclusion was set to 30 s and top 12 ions were selected from fragmentation in HCD mode. MS/MS scans with a target value of 1×10 5 ions

PKAR = assay: Western blot quantification of protein abundance, PKAR; type: cell-based, Trypanosoma brucei; conditions: WT cells, normalized to PFR, WT 0h set to 1, individual replicates
From the text: Replicate 1 Replicate 2 Replicate 3 PKAR
WT pkar KOWT pkar KO pkar WTKO1.0PKAC1/2 […]
(a) Samples prepared for quantitative proteome analysis: PKAR and PKAC1/2 protein levels (top Western panels, red) and RXXS*/T* phos-phorylation (bottom Western panels, phospho-specific anti-RXXS*/T*, red) are quantified as summarized in the column charts next to the Western blots. The scanned values were normalized to the loading control (PFR-A/C, green) and the untreated wild type sample was set to 1. Wild type (WT) and ∆pkar/∆pkar (pkar KO) cells were treated with 7-CN-7-C-Ino (Ino) for the indicated time (PKAR/PKAC1 expression) or for 10 min (RXXS*/T* phosphorylation). Error bars represent SD of three independent experiments.
>1.5 fold (vertical dashed lines) with a p-value of <0.05 (Welch’s t-test, two-sided) are labeled as blue dots with their TriTrypDB IDs.
Source data are provided as a Source Data file.
(also on this page, place not known: WT -Log10 WT6 -Log KO6 2 4 KO -1 / KO0 -Log10 p-value KO12 / KO0 2 4 10 WT (b) p-value p-value 2 4 -Log10 p-value / WT0 -1 0 1 WT12 / WT0 Fold expression 0 0 WT KO 1.0 PKAC1/2 WT pkar KO + - 0 1 2 4 Fold RXXS/T phosphorylation 11) […]
For Western blot analysis14, the primary antibodies anti-PKAR7 (1:500), anti - […]
(ThermoFisher, catalogue number A27042, 1:5000) were used for detection using the OdysseyTM IR fluorescence scanning system. […]

[2] = WT trypanosomes, 12 hours treatment vs untreated, LFQ, three independent replicates

Sequence of T. brucei PKAR-PKAC1 holoenzyme (Q38DR5 entry or part of it): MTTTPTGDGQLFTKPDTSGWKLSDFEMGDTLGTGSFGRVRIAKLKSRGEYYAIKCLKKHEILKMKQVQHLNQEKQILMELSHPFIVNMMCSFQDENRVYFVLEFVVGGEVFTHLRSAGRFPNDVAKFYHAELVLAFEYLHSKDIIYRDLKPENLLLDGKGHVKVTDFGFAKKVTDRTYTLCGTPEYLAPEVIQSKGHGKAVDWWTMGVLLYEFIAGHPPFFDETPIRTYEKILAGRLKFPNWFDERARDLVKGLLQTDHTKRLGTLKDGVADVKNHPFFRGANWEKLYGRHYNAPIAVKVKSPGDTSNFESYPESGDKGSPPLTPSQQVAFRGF
Sequence of T. brucei PKAR-PKAC1 holoenzyme (Q9GU80 entry or part of it): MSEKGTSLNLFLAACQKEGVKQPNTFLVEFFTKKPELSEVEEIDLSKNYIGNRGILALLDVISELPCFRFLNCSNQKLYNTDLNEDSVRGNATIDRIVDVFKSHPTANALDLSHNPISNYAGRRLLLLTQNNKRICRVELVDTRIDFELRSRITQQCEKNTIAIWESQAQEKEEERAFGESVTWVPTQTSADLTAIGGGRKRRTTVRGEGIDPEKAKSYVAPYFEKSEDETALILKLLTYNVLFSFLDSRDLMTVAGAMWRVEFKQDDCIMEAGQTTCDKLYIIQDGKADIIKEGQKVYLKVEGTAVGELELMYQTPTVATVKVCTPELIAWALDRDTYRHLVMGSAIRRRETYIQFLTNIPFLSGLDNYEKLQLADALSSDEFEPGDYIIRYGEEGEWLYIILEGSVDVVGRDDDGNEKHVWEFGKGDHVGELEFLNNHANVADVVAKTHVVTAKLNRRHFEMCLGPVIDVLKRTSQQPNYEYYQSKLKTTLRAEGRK
Sequence of T. brucei PKA (Q38DS1 entry or part of it): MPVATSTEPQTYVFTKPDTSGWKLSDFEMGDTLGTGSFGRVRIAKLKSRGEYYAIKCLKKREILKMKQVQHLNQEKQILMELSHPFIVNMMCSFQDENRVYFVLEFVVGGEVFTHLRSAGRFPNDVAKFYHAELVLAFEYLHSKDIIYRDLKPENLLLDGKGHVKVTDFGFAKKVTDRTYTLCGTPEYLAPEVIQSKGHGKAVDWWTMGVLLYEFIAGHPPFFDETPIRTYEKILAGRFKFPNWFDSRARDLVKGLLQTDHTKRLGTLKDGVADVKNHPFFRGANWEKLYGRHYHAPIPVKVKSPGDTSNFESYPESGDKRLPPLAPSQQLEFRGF
Sequence of T. brucei PKA (Q38DR5 entry or part of it, further chain): as the sequence (Q38DR5 entry or part of it) above
Sequence of T. brucei PKA (Q9GU80 entry or part of it): as the sequence (Q9GU80 entry or part of it) above

N#Cc1cn([C@@H]2O[C@H](CO)[C@@H](O)[C@H]2O)c2ncnc(O)c12 [7-CN-7-C-Ino, 7-Cyano-7-deazainosine]
VASP phosphorylation in PKAC3 deletion + PKAC1/2 RNAi cell line, in words (T. brucei PKA; 4 µM, 15 min): undetectable | EC50 (T. brucei PKA; read-out: EC50 in vivo PKA assay, VASP reporter, 15 min treatment, mean ± SD): 838 ± 139 nM | In vitro kinase assay ([1]; 0.00014 µM): 0.05 U/ml and 0.04 U/ml (2×) | In vitro kinase assay ([1]; 0.00041 µM): 0.05 U/ml | In vitro kinase assay ([1]; 0.00123 µM): 0.08 U/ml and 0.07 U/ml (2×) | In vitro kinase assay ([1]; 0.0037 µM): 0.12 U/ml | In vitro kinase assay ([1]; 0.01111 µM): 0.16 U/ml (2×) and 0.18 U/ml | In vitro kinase assay ([1]; 0.03333 µM): 0.2 U/ml and 0.19 U/ml (2×) | In vitro kinase assay ([1]; 0.1 µM): 0.18 U/ml and 0.17 U/ml and 0.19 U/ml | In vitro kinase assay ([1]; 0.3 µM): 0.17 U/ml and 0.2 U/ml and 0.16 U/ml | higher activation potency on purified holoenzyme compared to Toyo ([1]; ratio of EC50): 36 fold | fold regulation KO12 vs KO0 (up/down), Tb927.2.5820 hypothetical protein (T. brucei proteome; PKAR knock out trypanosomes, 12 hours treatment vs untreated, LFQ, three independent replicates): 1.69 ± 0.28 fold | fold regulation WT12 vs WT0 (up/down), Tb927.10.12510 P-type H+-ATPase (T. brucei proteome; [2]): 0.60 ± 0.03 fold | fold regulation WT12 vs WT0 (up/down), Tb927.10.2440 Metacaspase-4 (T. brucei proteome; [2]): 0.65 ± 0.03 fold | fold regulation WT12 vs WT0 (up/down), Tb927.10.8440 glucose transporter (T. brucei proteome; [2]): 1.56 ± 0.16 fold | fold regulation WT12 vs WT0 (up/down), Tb927.11.14750 PSP1 C-terminal conserved region (T. brucei proteome; [2]): 0.52 ± 0.04 fold | fold regulation WT12 vs WT0 (up/down), Tb927.2.5820 hypothetical protein (T. brucei proteome; [2]): 1.82 ± 0.31 fold | fold regulation WT12 vs WT0 (up/down), Tb927.4.4310 Nucleoporin NUP64 (T. brucei proteome; [2]): 0.65 ± 0.05 fold | fold regulation WT12 vs WT0 (up/down), Tb927.7.3450 I/6 autoantigen (T. brucei proteome; [2]): 1.58 ± 0.04 fold | fold regulation WT12 vs WT0 (up/down), Tb927.7.7520;Tb927.7.7530 receptor-type adenylate cyclase GRESAG 4 (T. brucei proteome; [2]): 0.65 ± 0.02 fold | fold regulation WT12 vs WT0 (up/down), Tb927.8.6760 IgE-dep. histamine-releasing factor (T. brucei proteome; [2]): 0.66 ± 0.01 fold | fold regulation WT12 vs WT0 (up/down), Tb927.8.7780 hypothetical protein (T. brucei proteome; [2]): 1.55 ± 0.08 fold | fold regulation WT12 vs WT0 (up/down), Tb927.9.10100 hypothetical protein (T. brucei proteome; [2]): 0.53 ± 0.02 fold | fold regulation WT12 vs WT0 (up/down), Tb927.9.11100 cAMP-dependent protein kinase catalytic subunit 1 (T. brucei proteome; [2]): 0.36 ± 0.01 fold | fold regulation WT12 vs WT0 (up/down), Tb927.9.12380 Histidine phosphatase superfamily (branch 1) (T. brucei proteome; [2]): 0.48 ± 0.11 fold | fold regulation WT12 vs WT0 (up/down), Tb927.9.2670 Engulfment and cell motility domain-containing protein (T. brucei proteome; [2]): 1.70 ± 0.08 fold | significantly regulated proteins, in words (T. brucei proteome; wild type, 6 h post induction): No significantly regulated proteins | significantly regulated proteins (number) (T. brucei proteome; wild type, 12 h post induction, ≥[…], p ≤ 0.05): 14 | PKAR Western quantification (PKAR; 6 h treatment): 0.8653 and 0.7031 and 1.455 | PKAR Western quantification (PKAR; 12 h treatment): 0.7135 and 0.7185 and 1.457
